This is an account of results in patent publication US20260364080A1, “PYRAZOLO-PYRIMIDINONE COMPOUNDS FOR USE IN METHODS OF INHIBITING WEE1 A KINASE” (Acrivon Therapeutics, Inc., priority 2023, published 2026).

What is called IC50 is the concentration that gives 50% inhibition. In general, EC50 refers to the midpoint of the concentration-response curve.

The structures appear in SMILES notation. Like-named read-outs stand apart in the source and are kept apart here.

Test [1] deals with T1, recombinant human Wee1A kinase (Homo sapiens, UniProt P30291).
T1 construct: full length Wee1 kinase was expressed by baculovirus in insect cells; purchased Invitrogen PV3817; host or cells: insect cells (baculovirus)
T1 sequence (P30291 whole entry): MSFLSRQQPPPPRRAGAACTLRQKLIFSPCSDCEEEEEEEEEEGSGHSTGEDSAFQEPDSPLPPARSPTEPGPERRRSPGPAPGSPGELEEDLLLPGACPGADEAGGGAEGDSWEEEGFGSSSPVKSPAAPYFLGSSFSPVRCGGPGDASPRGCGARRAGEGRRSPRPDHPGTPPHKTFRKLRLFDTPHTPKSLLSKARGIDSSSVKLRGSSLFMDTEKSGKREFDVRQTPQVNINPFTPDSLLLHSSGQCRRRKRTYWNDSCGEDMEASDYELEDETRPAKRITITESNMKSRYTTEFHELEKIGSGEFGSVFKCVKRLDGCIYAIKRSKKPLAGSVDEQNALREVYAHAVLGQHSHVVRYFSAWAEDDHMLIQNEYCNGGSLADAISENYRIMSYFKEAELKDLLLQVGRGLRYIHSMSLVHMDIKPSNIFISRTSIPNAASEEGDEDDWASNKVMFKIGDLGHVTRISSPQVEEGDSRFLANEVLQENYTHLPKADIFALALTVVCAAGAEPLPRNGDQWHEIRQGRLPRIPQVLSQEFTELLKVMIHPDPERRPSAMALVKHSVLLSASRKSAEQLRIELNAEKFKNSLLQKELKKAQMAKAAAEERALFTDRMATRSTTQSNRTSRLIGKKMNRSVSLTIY
Briefly: Wee1A kinase binding assay (LanthaScreen Eu time-resolved FRET). As for the experimental part:
This time resolved-FRET binding assay was performed in white 384-well low volume plates (Greiner, cat #784075), at room temperature in kinase buffer A (KBA; Invitrogen cat #PV3189), consisting of 50 mM HEPES-NaOH (pH 7.5), 0.01% Brij-35, 10 mM MgCl2, and 1 mM EGTA. 5 μL of compound (diluted in reaction buffer, to 1% DMSO) were added to various wells in the plate, followed by 5 μL each of recombinant human Wee1A kinase (full length Wee1 kinase was expressed by baculovirus in insect cells using a N-terminal GST tag (MW: 99.1 kDa) (Invitrogen cat #PV3817) and LanthaScreen Eu-anti-GST antibody (Invitrogen, cat #PV5594). After this, 5 μL of kinase tracer 178 (Invitrogen, cat #PV5593) was added to the plate and the plate was incubated for 60 minutes at room temperature. The final assay conditions in each well were: 30 nM tracer 178, 5 nM Wee1A kinase and 2 nM Eu-labeled antibody in total assay volume of 15 μL. An Envision 2104 (Perkin-Elmer) Plate Reader with the following time-resolve fluorescence setting was used for performing LanthaScreen kinase binding assay. • Excitation 320 nm (30 nm bandpass) • Kinase Tracer Emission 665 nm (10 nm bandpass) • LanthaScreen Eu-anti-Tag Antibody Emission 615 nm (10 nm bandpass) • Dichroic Mirror Instrument dependent • Delay Time 100 μs • Integration Time 200 μs
(§1) To calculate the emission ratio, the acceptor/tracer emission ([…]) was divided by the antibody/donor emission ([…]) and the average of duplicate measurement was used for calculations. Data plotting, analysis of binding, and curve fitting was done using Excel add-in XLfit version 5.5.0.5 (IDBS, Guildford, United Kingdom). […] “NT” means not tested.

Test [2] has as its target T2, Myt1 kinase (recombinant PMYT-1) (Homo sapiens, UniProt Q99640).
T2 construct: full length PMYT-1 was expressed by baculovirus in insect cells; purchased Invitrogen A30984; host or cells: insect cells (baculovirus)
T2 sequence (Q99640 1-499): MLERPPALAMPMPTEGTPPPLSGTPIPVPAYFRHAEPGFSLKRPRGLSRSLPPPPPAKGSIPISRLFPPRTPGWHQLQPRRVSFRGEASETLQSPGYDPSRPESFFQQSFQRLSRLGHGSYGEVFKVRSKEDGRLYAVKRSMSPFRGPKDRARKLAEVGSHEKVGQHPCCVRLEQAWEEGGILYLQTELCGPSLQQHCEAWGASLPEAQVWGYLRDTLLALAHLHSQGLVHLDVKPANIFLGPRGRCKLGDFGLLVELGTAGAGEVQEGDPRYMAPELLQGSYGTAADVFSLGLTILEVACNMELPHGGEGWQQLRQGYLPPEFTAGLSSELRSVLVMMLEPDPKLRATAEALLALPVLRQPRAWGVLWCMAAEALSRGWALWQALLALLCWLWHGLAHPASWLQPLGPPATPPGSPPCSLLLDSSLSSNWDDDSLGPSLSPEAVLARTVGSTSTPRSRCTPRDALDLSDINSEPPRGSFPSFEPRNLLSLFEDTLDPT
Description: Myt1 kinase binding assay (LanthaScreen Eu Kinase Binding Assay). The procedure:
as §1
We used a LanthaScreen Europium (Eu) Kinase Binding Assay to determine the binding affinities (IC50) of compounds to Myt1 kinase. […] “NT” designates that the compound was not tested in this assay.

Test [3] concerns the target T3, Wee1A kinase (CDK1 Tyr15 phosphorylation in ACHN renal cell carcinoma cells) (Homo sapiens, UniProt P30291).
T3 construct: pCDK1 Tyr15 immunofluorescence read-out
Description: High-content imaging of pCdk1 Y15, Wee1A kinase target engagement in ACHN cells. Type of test: cell-based. As for the experimental part: Each of an ACHN renal cell carcinoma cell line (ATCC) and a DAOY medulloblastoma cell line, and an A427 lung cancer line were cultured in Minimum Essential Medium Eagle supplemented with 10% fetal calf serum (Sigma), 1% Penicillin-Streptomycin and 10 mM HEPES buffer (HyClone). Cell cultures were kept in a humidified incubator at 37 °C and 5% CO2. Cells were routinely tested for Mycoplasma contamination.
For target engagement assessment of Wee1A kinase inhibition, high-content imaging of ACHN renal cell carcinoma cells was used for quantification of CDK1 phosphorylated on tyrosine 15 by immunofluorescence (“IF”). 20,000 cells per well were seeded in tissue culture treated 96 well plates and treated with compounds at concentrations ranging from 7 to 5,000 nM or from 0.3 to 200 nM for 4h. Cells were fixated for 15 minutes in 4% paraformaldehyde solution, washed in PBS and permeabilized using 0.2% Triton X-100. Blocking was performed for 1 h at RT using Blocker FL Fluorescent Blocking Buffer (Thermo Scientific), thereafter cells were incubated with primary antibody (rabbit anti-pCDK1 Y^15, #4539, Cell Signaling Technology) at 4 °C ON. Alexa Fluor Plus 647 labelled goat anti-rabbit (A32733, Thermo Scientific) was used as secondary antibody. After washing in PBS, nuclei were stained with DAPI solution for 10 min at RT, protected from light. Cells were imaged using an ImageXpress Pico automated imaging system and CellReporter Xpress software (Molecular Devices). The percentage of cells with nuclear positivity for pCdk1 Y^15 compared to DMSO control was determined for each well and drug dose response curves and EC50 values were calculated and visualized using GraphPad Prism. Target engagement for Wee1A kinase can also be measured using the same AlphaLISA assay in OVCAR3 cells, an ovarian cancer cell line. NIH:OVCAR-3 (OVCAR3) cells are cultured in RPMI-1640 medium supplemented with 0.01 mg/ml insulin, 20% FBS, 1% Penicillin-Streptomycin and 10 mM HEPES buffer. 14,000 cells per well are seeded into 96 well tissue culture plates in full medium. Twenty-four hours post seeding, cells are treated with compound for 4 hours at concentrations ranging from 0.017 nM to 1000 nM.

[4] abbreviates: 30 nM tracer 178, 5 nM Wee1A kinase, 2 nM Eu-labeled antibody, 60 minutes at room temperature, read-out: Wee1A kinase Binding IC50.
Setting [5] is: 3 nM tracer 178, 2.5 nM PMYT-1, 1 nM Eu-labeled antibody, read-out: Myt1 kinase Binding IC50.
Setting [6] is: 4 h treatment, nuclear positivity for pCdk1 Y15 vs DMSO control, read-out: CDK1 Tyr15 Phosphorylation EC50.
The mark [7] stands for this setting: Myt1 kinase Binding IC50, 3 nM tracer 178, 2.5 nM PMYT-1, 1 nM Eu-labeled antibody.
The mark [8] stands for this setting: read-out: CDK1 Tyr15 Phosphorylation EC50, 4 h treatment, nuclear positivity for pCdk1 Y15 vs DMSO control.

T3 sequence (P30291 whole entry): as the sequence (P30291 whole entry) above

As to `CCn1c(=O)c2cnc(Nc3cccc(-c4cccnc4)c3)nc2n1-c1cccc(OC2CCN(C)CC2)n1` [Compound 352, 2-ethyl-1-[6-(1-methyl-4-piperidyloxy)-2-pyridyl]-6-[m-(3-pyridyl)phenylamino]-1,2-dihydro-3H-1,2,5,7-tetraazainden-3-one], the IC50 in test [1] (setting [4]) was < 0.01 µM; in test [2] (setting [5]) it was 0.02 to 0.1 µM. Further, in test [3] (setting [6]), the concentration for a half-maximal effect (EC50) is < 0.1 µM.
As for `C=CCn1c(=O)c2cnc(Nc3ccc4nn(CC)cc4c3)nc2n1-c1cccc(OC2CCNCC2)n1` [Compound 276], the IC50 in test [1] (setting [4]) is < 0.01 µM; in test [2] (setting [5]), 0.02 to 0.1 µM. For the same compound, the EC50 in test [3] (setting [6]) was < 0.1 µM.
Consider `C=CCn1c(=O)c2cnc(Nc3ccc4nn(C)cc4c3)nc2n1-c1cccc(OC2CCNCC2)n1` [Compound 274, 2-allyl-6-((2-methyl-2H-indazol-5-yl)amino)-1-(6-(piperidin-4-yloxy)pyridin-2-yl)-1,2-dihydro-3H-pyrazolo[3,4-d]pyrimidin-3-one], for which the IC50 in test [1] (setting [4]) was < 0.01 µM; in test [2] (setting [5]) it was < 0.02 µM. In addition, in test [3] (setting [6]), the EC50 lay in the range of 0.1 to 0.5 µM.
For the compound `C=CCn1c(=O)c2cnc(Nc3ccnc(OC)c3)nc2n1-c1cccc(OC2CCN(C)CC2)n1` [Compound 263, 2-allyl-6-(2-methoxy-4-pyridylamino)-1-[6-(1-methyl-4-piperidyloxy)-2-pyridyl]-1,2-dihydro-3H-1,2,5,7-tetraazainden-3-one], the IC50 in test [1] (setting [4]) was < 0.01 µM; in test [2] (setting [5]), < 0.02 µM. Also, in test [3] (setting [6]), the EC50 is < 0.1 µM.
On to `C=CCn1c(=O)c2cnc(Nc3cccc(-n4cccn4)c3)nc2n1-c1cccc(OC2CCN(C)CC2)n1` [Compound 364, 2-allyl-1-[6-(1-methyl-4-piperidyloxy)-2-pyridyl]-6-[m-(1-pyrazolyl)phenylamino]-1,2-dihydro-3H-1,2,5,7-tetraazainden-3-one], for which the IC50 in test [1] (setting [4]) is < 0.01 µM; in test [2] (setting [5]), 0.02 to 0.1 µM. Moreover, the EC50 in test [3] (setting [6]) is < 0.1 µM.
For the compound `C=CCn1c(=O)c2cnc(Nc3ccc4cn(C)nc4c3)nc2n1-c1cccc(OC2CCNCC2)n1` [Compound 393, 2-allyl-6-((2-methyl-2H-indazol-6-yl)amino)-1-(6-(piperidin-4-yloxy)pyridin-2-yl)-1,2-dihydro-3H-pyrazolo[3,4-d]pyrimidin-3-one], the IC50 is < 0.01 µM in test [1] (setting [4]) and 0.02 to 0.1 µM in test [2] (setting [5]). For the same compound, the EC50 in test [3] (setting [6]) lay within 0.1 to 0.5 µM.
As for `CCn1c(=O)c2cnc(Nc3cccc(-c4cncnc4)c3)nc2n1-c1cccc(OC2CCN(C)CC2)n1` [Compound 367, 2-ethyl-1-[6-(1-methyl-4-piperidyloxy)-2-pyridyl]-6-[m-(5-pyrimidinyl)phenylamino]-1,2-dihydro-3H-1,2,5,7-tetraazainden-3-one], the IC50 was < 0.01 µM in test [1] (setting [4]) and 0.1 to 0.5 µM in test [2] (setting [5]). Also, the concentration giving a half-maximal response (EC50) in test [3] (setting [6]) is < 0.1 µM.
Taken in the same sequence, the figures for `CN1CCC(Oc2cccc(-n3c4nc(Nc5ccc(Cl)cc5)ncc4c(=O)n3C)n2)CC1` [Compound 150, 6-(p-chlorophenylamino)-2-methyl-1-[6-(1-methyl-4-piperidyloxy)-2-pyridyl]-1,2-dihydro-3H-1,2,5,7-tetraazainden-3-one] were < 0.01 µM, 0.02 to 0.1 µM and 0.1 to 0.5 µM.
Turning to `C=CCn1c(=O)c2cnc(Nc3ccc(F)cc3)nc2n1-c1cccc(OC2CCCN(C)CC2)n1` (single isomer, unassigned) [Compound 351], the IC50 in test [1] (setting [4]) was < 0.01 µM; in test [2] (setting [5]), 0.02 to 0.1 µM. Further, the EC50 in test [3] (setting [6]) was < 0.1 µM.
For `C=CCn1c(=O)c2cnc(Nc3ccc(Cl)cc3)nc2n1-c1cccc(N[C@@H]2CCCN(C)C2)n1` [Compound 168, 1-{6-[(R)-1-methyl-3-piperidylamino]-2-pyridyl}-2-allyl-6-(p-chlorophenylamino)-1,2-dihydro-3H-1,2,5,7-tetraazainden-3-one], in that order: < 0.01 µM, > 0.5 µM and > 1 µM.
Take `Cc1cc(Nc2ncc3c(=O)n(C)n(-c4cccc(OC5CCNCC5)n4)c3n2)ccc1F` [Compound 154, 6-(4-fluoro-3-toluidino)-2-methyl-1-[6-(4-piperidyloxy)-2-pyridyl]-1,2-dihydro-3H-1,2,5,7-tetraazainden-3-one]: the IC50 in test [1] (setting [4]) is < 0.01 µM; in test [2] (setting [5]) it was 0.1 to 0.5 µM. Further, the EC50 in test [3] (setting [6]) lay in the range of 0.1 to 0.5 µM.
Take `C=CCn1c(=O)c2cnc(Nc3ccc(Cl)cc3)nc2n1-c1cccc(O[C@H]2CN3CCC2CC3)n1` [Compound 176, 1-{6-[(3R)-1-azabicyclo[2.2.2]octan-3-yloxy]pyridin-2-yl}-6-[(4-chlorophenyl)amino]-2-(prop-2-en-1-yl)-1H,2H,3H-pyrazolo[3,4-d]pyrimidin-3-one]: the IC50 in test [1] is < 0.01 µM; in test [2] (setting [7]), > 0.5 µM. The EC50 in test [3] (setting [8]) is > 1 µM.
On to `C=CCn1c(=O)c2cnc(Nc3cnn(CC(C)C)c3)nc2n1-c1cccc(N(C)C2CCN(C)CC2)n1` [Compound 175, 1-{6-[methyl(1-methylpiperidin-4-yl)amino]pyridin-2-yl}-6-{[1-(2-methylpropyl)-1H-pyrazol-4-yl]amino}-2-(prop-2-en-1-yl)-1H,2H,3H-pyrazolo[3,4-d]pyrimidin-3-one], for which the IC50 in test [1] was < 0.01 µM; in test [2] (setting [7]), > 0.5 µM. Further, the EC50 in test [3] (setting [8]) fell in the range of 0.5 to 1 µM.
On to `C=CCn1c(=O)c2cnc(Nc3ccc(Cl)cc3)nc2n1-c1cccc(N(C)C2CCNCC2)n1` [Compound 156, 6-[(4-chlorophenyl)amino]-1-{6-[methyl(piperidin-4-yl)amino]pyridin-2-yl}-2-(prop-2-en-1-yl)-1H,2H,3H-pyrazolo[3,4-d]pyrimidin-3-one], for which the IC50 in test [1] was < 0.01 µM; in test [2] (setting [7]), 0.1 to 0.5 µM. Besides, in test [3] (setting [8]), the EC50 is 0.5 to 1 µM.
